Measurements published in patent US11927589B2, “Carrier peptide fragment for nucleolar localization and use thereof” (TOAGOSEI CO., LTD., priority 2021, dated 2024).
FAM = FAM: 5(6)-carboxyfluorescein, a fluorescent dye

What was measured:
HeLa cells [1] = experiment: Evaluation of cell membrane permeability by flow cytometry (Test 1); details: 10 μM, 20 hours incubation
Procedure: HeLa cells were cultured in a DMEM (Dulbecco's modified Eagle's medium (Cat No. 043-30085 commercially available from FUJIFILM Wako Pure Chemical Corporation)) containing 10% FBS (fetal bovine serum), which is a general culture medium.
HeLa cells adhered to a culture plate were washed with PBS and a 0.25% trypsin/EDTA solution was then added, and the cells were incubated at 37° C. for 3 minutes. After the incubation, a 10% FBS-containing DMEM was added, trypsin was inactivated, and centrifugation was then performed at 150×g for 5 minutes to precipitate cells. […]
For the obtained cells (cell pellets), the cell permeability of Sample 1 was analyzed using a flow cytometer. […]
Using the flow cytometer, gating was performed based on forward scatter (FSC) and side scatter (SSC), a gate was set for a cell population to be analyzed, and the fluorescent intensity was measured for the cell population within such a gate. […] For measurement of the fluorescent intensity, a fluorescence detector FL2 (optimal detection wavelength of about 543 nm) of the flow cytometer that can detect a fluorescence wavelength of FAM was used. The measurement results were analyzed using commercially available analysis software “FlowJo (registered trademark)” (commercially available from TreeStar) to obtain a mean fluorescent intensity (MFI) of the cell population to be measured.

[2] = Cytotoxicity examination by the inventors; type: cell-based
Procedure: In all of the amino acid sequences shown in SEQ ID NOs 1 to 4, 11 amino acid residues among 13 amino acid residues are composed of basic amino acids (arginine and lysine). […] On the other hand, in the carrier peptide fragment composed of any of the amino acid sequences shown in SEQ ID NOs 1 to 4, the inventors have confirmed through examination that, even if the concentration of the carrier peptide fragment is 100 μM, there is almost no cytotoxicity, and the cytotoxicity is much lower than that of R8. […] Although the details of the mechanism are not clear, in the carrier peptide fragment disclosed here, it is estimated that inclusion of a threonine residue and a leucine residue which are neutral amino acids at the 4th and 5th positions in addition to basic amino acids contributes to reduction of cytotoxicity.

HeLa cells [3] = experiment: Intracellular localization by confocal laser scanning microscopy (Test 2); type: cell-based, human; details: 5 μM, 20 hours, methanol-fixed, DAPI/FAM merged images
Procedure: In this test, localization of Samples 1 to 5 in HeLa cells was analyzed. HeLa cells were seeded on collagen-coated 8-well slides at about 2×10^4 cells/well, and cultured overnight in the presence of 5% CO2 at 37° C. A 10% FBS-containing DMEM was used as the cell culture solution.
Then, the supernatant (culture solution) was removed, ice-cooled PBS was added, and washing on ice was performed three times. Then, ice-cooled methanol was added, the sample was left at −20° C. for 10 minutes, and the cells were immobilized. Then, methanol was removed, and washing was then performed three times with ice-cooled PBS. Then, a DAPI-containing encapsulant (commercially available from ThemoFisher Scientific) and a cover glass were used for encapsulation and fluorescence observation was performed under a confocal laser scanning microscope. […] Here, all FIGS. 2A to 2E show images in which fluorescent images of DAPI and FAM were merged.

For 5(6)-carboxyfluorescein [Example 6], the “relative value of MFI (mean fluorescent intensity), MFI value of Example 6 set to 1” value (HeLa cells [1]; flow cytometer FL2) was 1.
In the case of `N=C(N)NCCC[C@H](NC(=O)[C@H](CCCNC(=N)N)NC(=O)[C@H](CCCNC(=N)N)NC(=O)[C@H](CCCNC(=N)N)NC(=O)[C@H](CCCNC(=N)N)NC(=O)[C@H](CCCNC(=N)N)NC(=O)[C@H](CCCNC(=N)N)NC(=O)[C@@H](N)CCCNC(=N)N)C(=O)O` [Example R8, octaarginine], the cytotoxicity [2] is reported as “relatively high”.
With “Ac-KKRTLRKKKRKKR-FAM (Ac-KKRTLRKKKRKKR-{FAM}) [Example 1]” the “MFI value compared with the MFI value of Example 5” value (HeLa cells [1]) was “more than three times as high”.
For “Ac-KKRTLRKNDRKKR-FAM (Ac-KKRTLRKNDRKKR-{FAM}) [Example 5]”, the “fluorescence of FAM observed in the nucleolus” value (HeLa cells [3]) was “slightly observed in the nucleolus”.
